Measurements as given in the supplement of paper PMC6045584.

Columns and labels:
Assay in all cases: area under dose-response curve of surviving fraction (unscaled, Aref=0) (surviving fraction x log10(nM)); higher = more resistant
Conditions in all cases: exposure time: 5 days; dose range 0.5-1000 nM
[1] = compound: CCn1c(C(=O)N(C2CC2)C2CC2)cc2c3c(ncn3C)c(Nc3cc(C)n(C)n3)nc21
Outline: (§1)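 Surviving fractions were fitted by 3-parameter logistic regression in the drc R package to give dose-response survival curves. They came from tumour cell lines treated for five days with eight inhibitor concentrations from 0.5 to 1000 nM and read by CellTiter-Glo luminescence against DMSO-only wells. The area under the curve is the unscaled activity area. It was calculated over log10 dose with Aref = 0.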

SOTRASTAURIN/AEB071 = compound: CN1CCN(c2nc(C3=C(c4c[nH]c5ccccc45)C(=O)NC3=O)c3ccccc3n2)CC1 [SOTRASTAURIN/AEB071]
Outline: as §1

SORAFENIB = compound: CNC(=O)c1cc(Oc2ccc(NC(=O)Nc3ccc(Cl)c(C(F)(F)F)c3)cc2)ccn1 [SORAFENIB]
Outline: as §1

FORETINIB = compound: COc1cc2c(Oc3ccc(NC(=O)C4(C(=O)Nc5ccc(F)cc5)CC4)cc3F)ccnc2cc1OCCCN1CCOCC1 [FORETINIB]
Outline: as §1

[2] = compound: COc1cc2ncnc(Nc3ccc(F)c(Cl)c3)c2cc1NC(=O)/C=C/CN1CCCCC1
Outline: as §1

[3] = compound: C[C@@H](Oc1cc(-c2cnn(C3CCNCC3)c2)cnc1N)c1c(Cl)ccc(F)c1Cl
Outline: as §1

ABIRATERONE = compound: C[C@]12CC[C@H](O)CC1=CC[C@@H]1[C@@H]2CC[C@]2(C)C(c3cccnc3)=CC[C@@H]12 [ABIRATERONE]
Outline: as §1

DASATINIB = compound: Cc1nc(Nc2ncc(C(=O)Nc3c(C)cccc3Cl)s2)cc(N2CCN(CCO)CC2)n1 [DASATINIB]
Outline: as §1

MLN-4924 = compound: NS(=O)(=O)OC[C@@H]1C[C@@H](n2ccc3c(N[C@H]4CCc5ccccc54)ncnc32)C[C@@H]1O [MLN-4924]
Outline: as §1

TEMOZOLOMIDE = compound: Cn1nnc2c(C(N)=O)ncn2c1=O [TEMOZOLOMIDE]
Outline: as §1

Test System | area under dose-response curve [1] | area under dose-response curve (SOTRASTAURIN/AEB071) | area under dose-response curve (SORAFENIB) | area under dose-response curve (FORETINIB) | area under dose-response curve [2] | area under dose-response curve [3] | area under dose-response curve (ABIRATERONE) | area under dose-response curve (DASATINIB) | area under dose-response curve (MLN-4924) | area under dose-response curve (TEMOZOLOMIDE)
JURKAT HAEMATOPOIETIC AND LYMPHOID TISSUE | 3.54 | 3.54 | 3.55 | 3.02 | 3.18 | 2.75 | 3.49 | 2.79 | 1.92 | 
LNCAP PROSTATE | 2.93 | 3.71 |  | 2.93 | 2.92 | 2.82 | 2.98 | 2.62 | 1.35 | 3.08
MDAMB134 BREAST | 3.44 | 2.77 | 3.71 |  |  | 2.51 | 3.48 | 2.13 | 2.2 | 3.51
MDAMB157 BREAST | 2.94 | 3.23 |  | 2.94 | 3.08 | 2.84 | 3.17 | 1.89 | 2.69 | 3.27
MDAMB361 BREAST | 2.83 | 2.21 | 2.79 | 2.98 | 2.58 | 2.88 |  | 2.45 | 2.48 | 3.06
MDAMB453 BREAST | 3.37 | 3.19 | 3.59 |  | 3.06 | 3.17 | 3.51 | 3.37 | 2.43 | 3.62
MDAMB468 BREAST | 3.4 | 3.12 | 3.82 |  | 2.43 | 3.05 | 3.46 | 2.57 | 2.17 | 3.67
MG63 BONE | 3.25 | 3.44 | 3.52 | 2.87 | 3.25 | 2.86 |  | 1.88 | 2.01 | 3.4
MHM BONE | 3.28 | 3.52 | 3.47 | 3.2 | 3.28 | 3.21 | 3.43 | 2.44 |  | 3.31
NCIH441 LUNG | 3.28 | 3.4 |  | 3.13 | 3.01 | 3.16 | 3.41 | 2.55 | 2.76 | 3.69
NOS1 BONE | 3.62 | 3.36 | 3.01 | 2.58 | 2.84 | 3.13 | 3.87 | 1.42 |  | 3.67
PCI30 HEADNECK | 3.14 | 3.42 |  | 3.16 | 1.71 | 3.12 | 3.58 | 2.63 | 2.6 | 3.28
RDES SOFT TISSUE | 4.17 | 3.42 | 3.76 | 2.73 |  | 2.6 | 4.04 | 2.92 | 2.44 | 3.9
S68 BREAST |  | 3.45 | 3.49 | 2.65 | 2.49 | 2.76 | 3.31 | 1.44 | 2.21 | 3.53
SAOS2 BONE | 3.41 | 3.08 |  | 3.04 | 3.15 | 2.88 | 3.89 | 1.69 | 1.97 | 3.9
SCC003 HEADNECK |  | 3.42 | 3.6 | 3.21 | 2.29 | 3.05 | 3.79 | 2.38 | 3.02 | 3.57

Test System | area under dose-response curve [1] | area under dose-response curve (SOTRASTAURIN/AEB071) | area under dose-response curve (SORAFENIB) | area under dose-response curve (FORETINIB) | area under dose-response curve [2] | area under dose-response curve [3] | area under dose-response curve (ABIRATERONE) | area under dose-response curve (DASATINIB) | area under dose-response curve (MLN-4924) | area under dose-response curve (TEMOZOLOMIDE)
SCC47 HEADNECK | 3.18 | 3.57 | 3.24 |  | 2.3 | 3.1 | 3.98 | 2.21 | 2.46 | 3.61
SCC90 HEADNECK | 3.25 | 2.96 |  |  | 1.84 | 3.19 | 4.01 | 2.21 | 1.64 | 3.49
SG28 HEADNECK | 3.25 |  | 4.1 |  | 1.87 |  | 3.46 |  |  | 
SG31 HEADNECK |  |  | 3.79 |  | 2.06 | 2.66 | 3.4 | 1.99 | 2.42 | 3.5
SG32 HEADNECK | 3.55 |  | 4.91 | 2.95 | 2.87 | 2.92 |  | 1.29 | 2.59 | 4.29
SG43 HEADNECK | 2.97 | 3.54 | 4.26 | 2.45 | 1.38 | 2.88 | 3.37 | 1.64 |  | 2.97
SIHA CERVIX | 3.23 |  | 3.73 | 3.11 |  | 3.14 | 3.9 | 2.35 | 2.59 | 3.34
SJSA1 BONE | 3.42 |  | 3.31 | 5.45 | 3.54 | 3.21 | 3.63 | 3.23 |  | 3.28
SKBR3 BREAST | 3.41 | 3.01 | 3.35 |  | 1.36 | 2.88 | 3.53 | 2.96 | 2.05 | 3.54
SUM44 BREAST | 3.39 |  | 3.43 | 3.91 | 3.24 | 3.1 | 3.4 | 3.11 |  | 4.14
SUM149.B1*.S BREAST | 3.62 | 3.26 | 3.92 |  | 3.06 | 3.1 | 3.93 | 2.05 | 2.42 | 3.73
SUM159 BREAST |  | 3.57 | 3.15 |  | 3.52 | 3.42 | 3.35 | 2.84 | 3.12 | 3.44
VP229 BREAST | 3.59 |  | 3.66 |  | 1.74 | 3.2 | 3.53 | 1.98 | 2.74 | 3.86
YAMATO SYNOVIAL | 4.14 | 3.66 | 4.27 | 2.34 | 4.37 | 1.83 | 4.72 | 2.5 |  | 4.22
ZR751 BREAST | 2.89 | 3.67 | 3.69 |  | 2.6 | 2.77 |  | 2.99 |  | 3.24
